Measured values from patent USRE38132E1, “Phenylpyrrolidines, phenylimidazolidines,3-phenyl-1,3-oxizolidines and 3-phenyl-1,3-thiazolidines and their use in the treatment of inflammatory disease” (Boehringer Ingelheim Pharmaceuticals, Inc., priority 1997, dated 2003).

Test system: SKW3 cells
Assay: not given
Details: not given

SMILES | Cellular Toxicity Assay MTT LD50 [µM]
O=C1NC(Cc2ccccc2O)C(=O)N1c1cc(Cl)cc(Cl)c1 (centres unmarked) [Example 3] | 125 to 250
O=C1NC(Cc2cccc(O)c2)C(=O)N1c1cc(Cl)cc(Cl)c1 (centres unmarked) [Example 4] | 250 to 500
O=C1NC(Cc2ccc(O)cc2)C(=O)N1c1cc(Cl)cc(Cl)c1 (centres unmarked) [Example 5] | 250 to 500
O=C1NC(c2ccccc2)C(=O)N1c1cc(Cl)cc(Cl)c1 (centres unmarked) [Example 6] | 250 to 500
COc1ccc(CC2NC(=O)N(c3cc(Cl)cc(Cl)c3)C2=O)cc1 (centres unmarked) [Example 8] | 125 to 500
CC1(Cc2ccc(O)cc2)NC(=O)N(c2cc(Cl)cc(Cl)c2)C1=O (centres unmarked) [Example 9] | 250 to 500
O=C1NC(CCc2ccccc2)C(=O)N1c1cc(Cl)cc(Cl)c1 (centres unmarked) [Example 12] | 125 to 250
CN1C(=O)N(c2cc(C(F)(F)F)cc(C(F)(F)F)c2)C(=O)[C@@]1(C)Cc1ccccc1 [Example 267] | 250
CN1C(=O)N(c2cc(C(F)(F)F)cc(C(F)(F)F)c2)C(=O)[C@]1(C)Cc1ccccc1 [Example 268] | 250 to 500
C[C@@H](c1ccccc1)[C@@]1(C)C(=O)N(c2cc(Cl)cc(Cl)c2)C(=O)N1C [Example 270] | 250 to 500

Target: T1, interaction of ICAM-1 with the Leukointegrin CD18/CD11a (LFA-1) (Homo sapiens, UniProt P05107+P20701)
T1 construct: endogenous in cells; sICAM-1: made in house, secreted from transfected CHO DUX cells
Assay: Assay to determine inhibition of LFA-1 binding to ICAM-1 (immunopurified LFA-1 on plate-bound sICAM-1, ELISA readout)
Details: not given

T1 sequence (P20701 26-1170): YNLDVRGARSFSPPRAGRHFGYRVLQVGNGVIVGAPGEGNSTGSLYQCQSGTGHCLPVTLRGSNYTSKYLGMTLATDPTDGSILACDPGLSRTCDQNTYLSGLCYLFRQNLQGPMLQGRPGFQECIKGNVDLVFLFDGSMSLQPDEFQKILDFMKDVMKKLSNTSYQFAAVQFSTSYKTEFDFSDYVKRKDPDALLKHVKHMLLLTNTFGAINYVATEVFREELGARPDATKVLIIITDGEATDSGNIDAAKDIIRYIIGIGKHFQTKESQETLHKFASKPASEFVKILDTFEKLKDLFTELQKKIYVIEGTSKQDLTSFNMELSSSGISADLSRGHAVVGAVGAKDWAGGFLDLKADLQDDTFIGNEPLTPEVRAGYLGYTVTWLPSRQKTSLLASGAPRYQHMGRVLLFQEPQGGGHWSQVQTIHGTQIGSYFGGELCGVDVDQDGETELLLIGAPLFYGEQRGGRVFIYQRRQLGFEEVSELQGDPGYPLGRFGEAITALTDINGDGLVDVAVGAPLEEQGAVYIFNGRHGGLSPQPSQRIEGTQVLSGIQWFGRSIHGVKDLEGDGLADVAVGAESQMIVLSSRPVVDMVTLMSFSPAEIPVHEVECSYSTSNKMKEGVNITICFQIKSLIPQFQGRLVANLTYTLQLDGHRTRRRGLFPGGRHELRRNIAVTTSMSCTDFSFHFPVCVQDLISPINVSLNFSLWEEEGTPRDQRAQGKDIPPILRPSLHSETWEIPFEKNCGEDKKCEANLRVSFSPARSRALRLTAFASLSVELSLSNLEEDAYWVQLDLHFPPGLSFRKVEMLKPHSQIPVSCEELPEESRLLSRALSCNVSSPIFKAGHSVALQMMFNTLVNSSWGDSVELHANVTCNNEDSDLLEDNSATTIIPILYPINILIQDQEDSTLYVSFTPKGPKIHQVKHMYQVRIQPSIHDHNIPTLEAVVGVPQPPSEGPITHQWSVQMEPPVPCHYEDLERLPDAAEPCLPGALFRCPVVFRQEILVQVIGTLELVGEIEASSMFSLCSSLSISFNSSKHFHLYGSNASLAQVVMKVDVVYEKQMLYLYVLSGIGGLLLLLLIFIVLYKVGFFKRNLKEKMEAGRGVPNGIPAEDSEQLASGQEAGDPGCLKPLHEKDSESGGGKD
T1 sequence (P05107 23-769): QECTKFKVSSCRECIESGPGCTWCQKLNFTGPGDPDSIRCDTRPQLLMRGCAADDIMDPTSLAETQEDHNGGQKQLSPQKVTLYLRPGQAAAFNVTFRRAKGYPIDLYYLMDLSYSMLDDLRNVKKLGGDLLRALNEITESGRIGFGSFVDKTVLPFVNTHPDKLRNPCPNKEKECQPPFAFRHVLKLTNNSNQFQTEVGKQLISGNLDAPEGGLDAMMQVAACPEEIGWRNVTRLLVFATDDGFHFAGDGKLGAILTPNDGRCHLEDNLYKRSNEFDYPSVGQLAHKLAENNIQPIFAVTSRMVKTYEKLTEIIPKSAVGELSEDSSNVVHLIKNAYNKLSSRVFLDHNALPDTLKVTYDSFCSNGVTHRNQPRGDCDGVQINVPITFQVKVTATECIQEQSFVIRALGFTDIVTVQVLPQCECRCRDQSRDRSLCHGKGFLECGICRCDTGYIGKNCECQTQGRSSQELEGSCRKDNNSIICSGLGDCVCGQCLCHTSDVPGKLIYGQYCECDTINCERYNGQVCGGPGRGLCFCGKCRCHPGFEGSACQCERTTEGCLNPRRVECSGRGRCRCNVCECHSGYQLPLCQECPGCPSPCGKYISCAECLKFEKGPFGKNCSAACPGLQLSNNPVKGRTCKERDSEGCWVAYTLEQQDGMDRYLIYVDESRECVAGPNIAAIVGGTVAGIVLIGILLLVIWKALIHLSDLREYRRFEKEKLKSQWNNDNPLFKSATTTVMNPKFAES

SMILES | Kd [nM]
CC1(Cc2ccc(-c3cc4ccccc4o3)cc2)NC(=O)N(c2cc(Cl)cc(Cl)c2)C1=O (centres unmarked) [Example 209] | 940
Cc1cc(C)cc(-c2ccc(CC3(C)NC(=O)N(c4cc(Cl)cc(Cl)c4)C3=O)cc2)c1 (centres unmarked) [Example 210] | 540
CC1(Cc2ccc(-c3ccc4ccccc4c3)cc2)NC(=O)N(c2cc(Cl)cc(Cl)c2)C1=O (centres unmarked) [Example 211] | ~2000
CC1(Cc2ccc(-c3cccc(F)c3)cc2)NC(=O)N(c2cc(Cl)cc(Cl)c2)C1=O (centres unmarked) [Example 212] | 70
CC1(Cc2ccc(-c3ccccc3C(F)(F)F)cc2)NC(=O)N(c2cc(Cl)cc(Cl)c2)C1=O (centres unmarked) [Example 213] | ~2000
COc1cccc(-c2ccc(CC3(C)NC(=O)N(c4cc(Cl)cc(Cl)c4)C3=O)cc2)c1 (centres unmarked) [Example 214] | 90
C[C@]1(Cc2ccc(C(=O)c3ccccc3)cc2)NC(=O)N(c2cc(Cl)cc(Cl)c2)C1=O [Example 216] | 500
O=C1NC(CCc2ccc(I)cc2)C(=O)N1c1cc(Cl)cc(Cl)c1 (centres unmarked) [Example 217] | 1780
CN1C(=O)N(c2cc(C(F)(F)F)cc(C(F)(F)F)c2)C(=O)[C@@]1(C)Cc1ccccc1 [Example 267] | 400
CN1C(=O)N(c2cc(C(F)(F)F)cc(C(F)(F)F)c2)C(=O)[C@]1(C)Cc1ccccc1 [Example 268] | 1590
C[C@@H](c1ccccc1)[C@@]1(C)C(=O)N(c2cc(Cl)cc(Cl)c2)C(=O)N1C [Example 270] | 650

The next lines start with the values.

Kd [nM] | SMILES
800 | CC1(Cc2ccccc2)C(=O)N(c2cc(Cl)cc(Cl)c2)C(=O)N1CCO (centres unmarked) [Example 218]
1030 | CC1(Cc2ccccc2)C(=O)N(c2cc(Cl)cc(Cl)c2)C(=O)N1CCCCC(=O)O (centres unmarked) [Example 219]
270 | C[C@@]1(Cc2ccc(Br)cc2)C(=O)N(c2cc(Cl)cc(Cl)c2)C(=O)N1CCCCCCP(=O)(O)O [Example 220]
140 | C[C@@]1(Cc2ccc(Br)cc2)C(=O)N(c2cc(Cl)cc(Cl)c2)C(=O)N1CCCCCP(=O)(O)O [Example 221]
60 | C[C@@]1(Cc2ccc(Br)cc2)C(=O)N(c2cc(Cl)cc(Cl)c2)C(=O)N1CCCCCP(=O)(O)O [Example 222]
2200 | CN1C(=O)N(c2cc(Cl)cc(Cl)c2)C(=O)C1(CN)Cc1ccc(Br)cc1 (centres unmarked) [Example 230]
1240 | C[C@@]1(Cc2ccc(Br)cc2)C(=O)N(c2cc(Cl)cc(Cl)c2)C(=O)N1C(=O)[C@H](N)CO [Example 232]
1790 | C[C@@]1(Cc2ccc(Br)cc2)C(=O)N(c2cc(Cl)cc(Cl)c2)C(=O)N1C(=O)[C@@H](N)CO [Example 233]
410 | C[C@@]1(Cc2ccc(Br)cc2)C(=O)N(c2cc(Cl)cc(Cl)c2)C(=O)N1C(=O)[C@@H]1CCCN1 [Example 234]
330 | C[C@@]1(Cc2ccc(Br)cc2)C(=O)N(c2cc(Cl)cc(Cl)c2)C(=O)N1C1CCN(CP(=O)(O)O)CC1 [Example 236]
80 | C[C@@]1(Cc2ccc(Br)cc2)C(=O)N(c2cc(Cl)cc(Cl)c2)C(=O)N1COC(=O)C(CO)CO [Example 238]
280 | C[C@@]1(Cc2ccc(Br)cc2)C(=O)N(c2cc(Cl)cc(Cl)c2)C(=O)N1Cc1ccccc1C(=O)O [Example 239]
250 | C[C@@]1(Cc2ccc(Br)cc2)C(=O)N(c2cc(Cl)cc(Cl)c2)C(=O)N1Cc1ccc(O)cc1 [Example 246]
1660 | CN(C)C(=O)c1ccc(CC2(C)C(=O)N(c3cc(Cl)cc(Cl)c3)C(=O)N2C)cc1 (centres unmarked) [Example 258]
3540 | CN1C(=O)N(c2cc(Cl)cc(Cl)c2)C(=O)C1(C)Cc1ccc(C(=O)N2CCCCC2)cc1 (centres unmarked) [Example 259]
2000 | CCN1C(=O)N(c2cc(Cl)cc(Cl)c2)C(=O)[C@]1(C)Cc1ccc(Br)cc1 [Example 275]
70 | C[C@]1(Cc2ccc(Br)cc2)CC(=O)N(c2cc(Cl)cc(Cl)c2)C1=O [Example 277]
1090 | C[C@@]1(Cc2ccc(Br)cc2)CC(=O)N(c2cc(Cl)cc(Cl)c2)C1=O [Example 278]

Same assay, conditions: values marked e approximated from incomplete dose-response curve

SMILES | Kd [nM]
O=C1NC(Cc2ccccc2O)C(=O)N1c1cc(Cl)cc(Cl)c1 (centres unmarked) [Example 3] | 3000
O=C1NC(Cc2cccc(O)c2)C(=O)N1c1cc(Cl)cc(Cl)c1 (centres unmarked) [Example 4] | 9320
O=C1NC(Cc2ccc(O)cc2)C(=O)N1c1cc(Cl)cc(Cl)c1 (centres unmarked) [Example 5] | 15400
O=C1NC(c2ccccc2)C(=O)N1c1cc(Cl)cc(Cl)c1 (centres unmarked) [Example 6] | 12800
COc1ccc(CC2NC(=O)N(c3cc(Cl)cc(Cl)c3)C2=O)cc1 (centres unmarked) [Example 8] | 2860
CC1(Cc2ccc(O)cc2)NC(=O)N(c2cc(Cl)cc(Cl)c2)C1=O (centres unmarked) [Example 9] | 7870
O=C1NC(CCc2ccccc2)C(=O)N1c1cc(Cl)cc(Cl)c1 (centres unmarked) [Example 12] | 1750
CCOc1ccccc1-c1ccc(CC2(C)NC(=O)N(c3cc(Cl)cc(Cl)c3)C2=O)cc1 (centres unmarked) [Example 193] | 290
COc1ccccc1-c1ccc(CC2(C)NC(=O)N(c3cc(Cl)cc(Cl)c3)C2=O)cc1 (centres unmarked) [Example 194] | 270
CC1(Cc2ccc(-c3cccs3)cc2)NC(=O)N(c2cc(Cl)cc(Cl)c2)C1=O (centres unmarked) [Example 195] | 300
CC1(Cc2ccc(-c3ccsc3)cc2)NC(=O)N(c2cc(Cl)cc(Cl)c2)C1=O (centres unmarked) [Example 196] | 90
Cc1ccccc1-c1ccc(CC2(C)NC(=O)N(c3cc(Cl)cc(Cl)c3)C2=O)cc1 (centres unmarked) [Example 197] | 190
CCOc1cccc(-c2ccc(CC3(C)NC(=O)N(c4cc(Cl)cc(Cl)c4)C3=O)cc2)c1 (centres unmarked) [Example 198] | 140
CC1(Cc2ccc(-c3ccc(Cl)s3)cc2)NC(=O)N(c2cc(Cl)cc(Cl)c2)C1=O (centres unmarked) [Example 199] | 270
CC1(Cc2ccc(-c3ccccc3F)cc2)NC(=O)N(c2cc(Cl)cc(Cl)c2)C1=O (centres unmarked) [Example 200] | 90
CC1(Cc2ccc(-c3ccc(Cl)cc3Cl)cc2)NC(=O)N(c2cc(Cl)cc(Cl)c2)C1=O (centres unmarked) [Example 201] | 680
CC1(Cc2ccc(-c3cccc(Cl)c3)cc2)NC(=O)N(c2cc(Cl)cc(Cl)c2)C1=O (centres unmarked) [Example 202] | 230
CC(=O)Nc1cccc(-c2ccc(CC3(C)NC(=O)N(c4cc(Cl)cc(Cl)c4)C3=O)cc2)c1 (centres unmarked) [Example 203] | 340
CC1(Cc2ccc(-c3cccc([N+](=O)[O-])c3)cc2)NC(=O)N(c2cc(Cl)cc(Cl)c2)C1=O (centres unmarked) [Example 204] | 500
CC1(Cc2ccc(-c3ccc(Cl)cc3)cc2)NC(=O)N(c2cc(Cl)cc(Cl)c2)C1=O (centres unmarked) [Example 205] | 560
CC1(Cc2ccc(-c3cccc(Br)c3)cc2)NC(=O)N(c2cc(Cl)cc(Cl)c2)C1=O (centres unmarked) [Example 206] | 730
CCOc1ccc(-c2ccc(CC3(C)NC(=O)N(c4cc(Cl)cc(Cl)c4)C3=O)cc2)cc1 (centres unmarked) [Example 207] | 1280
CC1(Cc2ccc(-c3ccc(C(F)(F)F)cc3)cc2)NC(=O)N(c2cc(Cl)cc(Cl)c2)C1=O (centres unmarked) [Example 208] | 650
